Laboratory results: PubChem BioAssay AID248 (DTP/NCI, 2004)
Where “and” joins values, the source holds several entries; their conditions need not be identical. Identical values can stand only once. Toxic doses and inconclusive results are not listed. No stated cut-off is given here; in the data, active means T/C of 150% or more; inactive means T/C below 125%.

System: L1210 leukemia ip in BDF1 mice, survival T/C
Assay: NCI In Vivo Anticancer Drug Screen. Data for tumor model L1210 Leukemia (intraperitoneal) in B6D2F1 (BDF1) mice
Conditions: endpoint: mean survival time, higher = longer survival
Procedure, shortened: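 Tumor cells were implanted, animals were treated, and survival was followed. The result divides the treated measurement by the vehicle-control measurement.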

[1] = dose: 100.0 mg/kg/injection, schedule: Q01DX001 (ip), vehicle: carboxymethylcellulose (CMC)
[2] = dose: 200.0 mg/kg/injection, schedule: Q01DX001 (ip), vehicle: carboxymethylcellulose (CMC)
[3] = dose: 400.0 mg/kg/injection, schedule: Q01DX001 (ip), vehicle: carboxymethylcellulose (CMC)
[4] = dose: 100.0 mg/kg/injection, schedule: Q04DX003 (ip), vehicle: saline with Tween-80
[5] = dose: 100.0 mg/kg/injection, schedule: Q01DX009 (ip), vehicle: Klucel (hydroxypropylcellulose) (HPC)
[6] = dose: 200.0 mg/kg/injection, schedule: Q01DX009 (ip), vehicle: Klucel (hydroxypropylcellulose) (HPC)
[7] = dose: 400.0 mg/kg/injection, schedule: Q01DX009 (ip), vehicle: Klucel (hydroxypropylcellulose) (HPC)
[8] = dose: 100.0 mg/kg/injection, schedule: Q04DX002 (ip), vehicle: Klucel (hydroxypropylcellulose) (HPC)
[9] = dose: 200.0 mg/kg/injection, schedule: Q04DX002 (ip), vehicle: Klucel (hydroxypropylcellulose) (HPC)
[10] = dose: 400.0 mg/kg/injection, schedule: Q04DX002 (ip), vehicle: Klucel (hydroxypropylcellulose) (HPC)
[11] = dose: 100.0 mg/kg/injection, schedule: Q04DX002 (ip), vehicle: saline
[12] = dose: 100.0 mg/kg/injection, schedule: Q04DX003 (ip), vehicle: Klucel (hydroxypropylcellulose) (HPC)
[13] = dose: 200.0 mg/kg/injection, schedule: Q04DX003 (ip), vehicle: Klucel (hydroxypropylcellulose) (HPC)
[14] = dose: 400.0 mg/kg/injection, schedule: Q04DX003 (ip), vehicle: Klucel (hydroxypropylcellulose) (HPC)

Measured: T/C

OC(c1ccccc1)(c1ccccc1)c1ccccc1CNc1ccccc1
inactive: dose: 50.0 mg/kg/injection, schedule: Q01DX001 (ip), vehicle: carboxymethylcellulose (CMC) 102 % of control | [1] 88 % of control | [2] 102 % of control | [3] 96 % of control

CCOC(=O)c1cc(Cl)c2c(ccc3ccccc32)n1
inactive: [1] 115 % of control | dose: 100.0 mg/kg/injection, schedule: Q01DX009 (ip), vehicle: carboxymethylcellulose (CMC) 92 % of control | dose: 100.0 mg/kg/injection, schedule: Q04DX002 (ip), vehicle: carboxymethylcellulose (CMC) 100 % of control and 103 % of control | dose: 100.0 mg/kg/injection, schedule: Q04DX003 (ip), vehicle: carboxymethylcellulose (CMC) 105 % of control | [2] 103 % of control | dose: 200.0 mg/kg/injection, schedule: Q01DX009 (ip), vehicle: carboxymethylcellulose (CMC) 92 % of control | dose: 200.0 mg/kg/injection, schedule: Q04DX002 (ip), vehicle: carboxymethylcellulose (CMC) 93 % of control and 97 % of control | dose: 200.0 mg/kg/injection, schedule: Q04DX003 (ip), vehicle: carboxymethylcellulose (CMC) 115 % of control | [3] 97 % of control | dose: 400.0 mg/kg/injection, schedule: Q01DX009 (ip), vehicle: carboxymethylcellulose (CMC) 98 % of control | dose: 400.0 mg/kg/injection, schedule: Q04DX002 (ip), vehicle: carboxymethylcellulose (CMC) 93 % of control and 95 % of control | dose: 400.0 mg/kg/injection, schedule: Q04DX003 (ip), vehicle: carboxymethylcellulose (CMC) 107 % of control

c1cc2c(cc1C1=NNC(c3ccc4c(c3)OCO4)=NN1)OCO2
inactive: [4] 104 % of control | dose: 200.0 mg/kg/injection, schedule: Q04DX003 (ip), vehicle: saline with Tween-80 98 % of control | dose: 400.0 mg/kg/injection, schedule: Q04DX003 (ip), vehicle: saline with Tween-80 96 % of control

NC(=O)c1ccn(C2OC(CO)C(O)C2O)n1 (stereo unspecified)
inactive: dose: 50.0 mg/kg/injection, schedule: Q01DX005 (ip), vehicle: water 105 % of control | dose: 100.0 mg/kg/injection, schedule: Q01DX005 (ip), vehicle: water 102 % of control | dose: 200.0 mg/kg/injection, schedule: Q01DX005 (ip), vehicle: water 102 % of control

CCCCCCCCOc1ccc(C=Nc2ccc(C(=O)OCC)cc2)cc1
inactive: [5] 87 % of control | [6] 92 % of control | [7] 94 % of control

O=C(Nc1ccc(Cc2ccc(NC(=O)Nc3cccc(C4=NCCN4)c3)cc2)cc1)Nc1cccc(C2=NCCN2)c1
inactive: dose: 111.0 mg/kg/injection, schedule: Q01DX Z (ip), vehicle: carboxymethylcellulose (CMC) 101 % of control | dose: 120.0 mg/kg/injection, schedule: Q01DX Z (ip), vehicle: carboxymethylcellulose (CMC) 98 % of control | dose: 166.0 mg/kg/injection, schedule: Q01DX Z (ip), vehicle: carboxymethylcellulose (CMC) 101 % of control | dose: 180.0 mg/kg/injection, schedule: Q01DX Z (ip), vehicle: carboxymethylcellulose (CMC) 98 % of control | dose: 250.0 mg/kg/injection, schedule: Q01DX Z (ip), vehicle: carboxymethylcellulose (CMC) 107 % of control | dose: 270.0 mg/kg/injection, schedule: Q01DX Z (ip), vehicle: carboxymethylcellulose (CMC) 101 % of control | dose: 375.0 mg/kg/injection, schedule: Q01DX Z (ip), vehicle: carboxymethylcellulose (CMC) 107 % of control | dose: 405.0 mg/kg/injection, schedule: Q01DX Z (ip), vehicle: carboxymethylcellulose (CMC) 100 % of control

CCCNC1(C(N)=O)CCN(Cc2ccccc2)CC1
inactive: dose: 25.0 mg/kg/injection, schedule: Q01DX009 (ip), vehicle: saline with Tween-80 93 % of control | dose: 25.0 mg/kg/injection, schedule: Q04DX003 (ip), vehicle: saline with Tween-80 97 % of control | dose: 50.0 mg/kg/injection, schedule: Q01DX009 (ip), vehicle: saline with Tween-80 95 % of control | dose: 50.0 mg/kg/injection, schedule: Q04DX003 (ip), vehicle: saline with Tween-80 97 % of control | dose: 100.0 mg/kg/injection, schedule: Q01DX009 (ip), vehicle: saline with Tween-80 91 % of control | [4] 97 % of control and 101 % of control

CCC1(N)COC(c2ccccc2)OC1 (stereo unspecified)
inactive: dose: 50.0 mg/kg/injection, schedule: Q01DX009 (ip), vehicle: Klucel (hydroxypropylcellulose) (HPC) 109 % of control | [5] 88 % of control

COC(OC)c1[nH]c(=S)[nH]c(=O)c1Cc1ccccc1Cl
inactive: [8] 97 % of control | [9] 97 % of control | [10] 105 % of control

CCOC(=O)N1CCc2nc3ccccc3cc21
inactive: dose: 50.0 mg/kg/injection, schedule: Q01DX009 (ip), vehicle: other 100 % of control | dose: 100.0 mg/kg/injection, schedule: Q01DX009 (ip), vehicle: other 90 % of control | dose: 200.0 mg/kg/injection, schedule: Q01DX009 (ip), vehicle: other 93 % of control

CS(=O)(=O)c1ccc(C(O)C(CO)NC(=O)C(Cl)Cl)cc1 (stereo unspecified)
inactive: [8] 96 % of control | [9] 93 % of control | [10] 90 % of control

C=COC(=O)NCC(=O)O
inactive: dose: 100.0 mg/kg/injection, schedule: Q01DX001 (ip), vehicle: saline 91 % of control | dose: 200.0 mg/kg/injection, schedule: Q01DX001 (ip), vehicle: saline 97 % of control | dose: 400.0 mg/kg/injection, schedule: Q01DX001 (ip), vehicle: saline 92 % of control

COC1OC2COC(c3ccccc3)OC2C(OC(=S)SCc2ccccc2)C1OC(=O)c1ccccc1 (stereo unspecified)
inactive: dose: 25.0 mg/kg/injection, schedule: Q04DX002 (ip), vehicle: saline 100 % of control | dose: 50.0 mg/kg/injection, schedule: Q04DX002 (ip), vehicle: saline 88 % of control | [11] 98 % of control | [9] 86 % of control | [10] 90 % of control

CCC1(O)CC2CN(CCc3c([nH]c4ccccc34)C(C(=O)OC)(c3cc4c(cc3OC)N(C)C3C(O)(C(N)=O)C(O)C5(CC)C=CCN6CCC43C65)C2)C1 (stereo unspecified) (tested in a mixture with another compound)
inactive: dose: 0.43 mg/kg/injection, schedule: Q01DX009 (ip), vehicle: saline 124 % of control | dose: 1.2 mg/kg/injection, schedule: Q01DX009 (ip), vehicle: saline 97 % of control | dose: 648.0 micrograms/kg/injection, schedule: Q04DX003 (ip), vehicle: saline 123 % of control | dose: 5000.0 micrograms/kg/injection, schedule: Q04DX003 (ip), vehicle: saline 111 % of control

NC(=O)NNc1ccccc1
inactive: [8] 94 % of control | [9] 94 % of control | [10] 90 % of control

CC(C)(C)c1cc(CO)cc(C(C)(C)C)c1O
inactive: [5] 108 % of control | [12] 91 % of control | [6] 100 % of control | [13] 92 % of control | [7] 96 % of control | [14] 105 % of control

CC(C)c1ccc(C(=S)N2CCOCC2)cc1
inactive: [12] 97 % of control | [13] 101 % of control | [14] 105 % of control

O=C1CC(=O)N2CCCCC2N1 (stereo unspecified)
inactive: dose: 100.0 mg/kg/injection, schedule: Q01DX001 (ip), vehicle: alcohol 106 % of control | dose: 200.0 mg/kg/injection, schedule: Q01DX001 (ip), vehicle: alcohol 103 % of control | dose: 400.0 mg/kg/injection, schedule: Q01DX001 (ip), vehicle: alcohol 110 % of control

O=C(Nc1cccc(C(F)(F)F)c1)Nc1ccccc1C(F)(F)F
inactive: dose: 100.0 mg/kg/injection, schedule: Q01DX009 (ip), vehicle: gum acacia 101 % of control | dose: 200.0 mg/kg/injection, schedule: Q01DX009 (ip), vehicle: gum acacia 101 % of control | dose: 400.0 mg/kg/injection, schedule: Q01DX009 (ip), vehicle: gum acacia 104 % of control

O=S(=O)(O)c1ccc(Cl)c(Cl)c1
inactive: [11] 107 % of control | dose: 200.0 mg/kg/injection, schedule: Q04DX002 (ip), vehicle: saline 100 % of control | dose: 400.0 mg/kg/injection, schedule: Q04DX002 (ip), vehicle: saline 107 % of control

Brc1cc(Br)c2[nH]c(-c3ccccc3)cc2c1
inactive: [1] 95 % of control | [2] 90 % of control | [3] 88 % of control
